EC50 data for 32 compounds are collected here from US20230092163A1, “COMPOUNDS AND COMPOSITIONS FOR TREATING CONDITIONS ASSOCIATED WITH STING ACTIVITY” (IFM Due, Inc., priority 2019, published 2023).

One assay deals with STING (Homo sapiens, UniProt Q86WV6, G230A/H232R/R293Q/R71H). Briefly: STING reporter assay: THP1-Dual KO-IFNAR2 cells stimulated with 2′3′cGAMP, luciferase reporter activity. Type of assay: cell-based. The conditions noted are these: 15 μM 2′3′cGAMP, 24h, class symbols. An outline of the steps: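 THP1-Dual KO-IFNAR2 cells (2×10E6 cells/mL) treated with compounds at 0.0017-100 μM, then stimulated with 2′3′cGAMP (15 μM final) delivered by Lipofectamine 2000; 24 h at 37° C. Supernatant luciferase read by QUANTI-Luc Plus luminescence; EC50 from dose-response.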
STING, sequence (Q86WV6 whole entry R71H/G230A/H232R/R293Q): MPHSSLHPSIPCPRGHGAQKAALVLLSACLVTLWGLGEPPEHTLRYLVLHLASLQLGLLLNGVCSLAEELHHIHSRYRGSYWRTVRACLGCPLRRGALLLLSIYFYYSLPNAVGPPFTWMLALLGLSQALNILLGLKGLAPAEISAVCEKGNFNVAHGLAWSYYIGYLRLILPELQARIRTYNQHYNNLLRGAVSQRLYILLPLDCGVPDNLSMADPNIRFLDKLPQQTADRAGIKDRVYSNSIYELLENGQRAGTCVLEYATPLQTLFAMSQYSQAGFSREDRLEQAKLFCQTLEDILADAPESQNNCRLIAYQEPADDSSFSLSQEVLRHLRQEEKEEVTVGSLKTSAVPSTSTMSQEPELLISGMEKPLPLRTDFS
For orientation: Reporter assays use an easily measured gene product as a stand-in for the process of interest.
As for `Cc1cc2cc[nH]c2cc1Nc1ccc2ccc(C(F)(F)F)cc2n1` [Compound 580, N-(5-methyl-1H-indol-6-yl)-7-(trifluoromethyl)quinolin-2-amine], the concentration giving a half-maximal response (EC50) – broadly, the concentration giving half of the maximal effect – lay within 5 to 100 µM.

The compound `Clc1ccc(Nc2ccc3cc[nH]c3c2)nc1Nc1ccc2cc[nH]c2c1` [Compound 581, 3-chloro-N2,N6-bis(1H-indol-6-yl)pyridine-2,6-diamine] gave a concentration for a half-maximal effect (EC50) of 5 to 100 µM.

In turn, `N#Cc1cc(Nc2ccc3cc[nH]c3c2)cc(Nc2ccc3cc[nH]c3c2)n1` [Compound 582, 4,6-bis[(1H-indol-6-yl)amino]pyridine-2-carbonitrile] yielded a 50% effective concentration (EC50) of 0.2 to 1 µM.

The compound `Cc1nc(Nc2ccc3cc[nH]c3c2)ccc1Nc1ccc2cc[nH]c2c1` [Compound 583, N2,N5-bis(1H-indol-6-yl)-6-methylpyridine-2,5-diamine] returned a 50% effective concentration (EC50) of 5 to 100 µM.

In turn, `FC(F)c1ccc2ccc(Nc3ccc4cc[nH]c4c3)nc2c1` [Compound 586, 7-(difluoromethyl)-N-(1H-indol-6-yl)quinolin-2-amine] had an EC50 of 1 to 5 µM.

`COc1ccc2ccc(Nc3ccc4cc[nH]c4c3)nc2c1` [Compound 587, N-(1H-indol-6-yl)-7-methoxyquinolin-2-amine] came in with an EC50 of 1 to 5 µM.

In turn, `COc1ccc2c(Cl)cc(Nc3ccc4cc[nH]c4c3)nc2c1` [Compound 588, 4-chloro-N-(1H-indol-6-yl)-7-methoxyquinolin-2-amine] returned a 50% effective concentration (EC50) of 1 to 5 µM.

`Clc1ccc2ccc(Nc3ccc4cc[nH]c4c3)nc2c1` [Compound 589, 7-chloro-N-(1H-indol-6-yl)quinolin-2-amine]: the half-maximal effective concentration (EC50) was 0.2 to 1 µM.

With `FC(F)(F)c1ccc(Nc2ccc3cc[nH]c3c2)nc1Cl` [Compound 591], the EC50 lay in the range of 1 to 5 µM.

`Cc1ccc2ccc(Nc3ccc4cc[nH]c4c3)nc2c1` [Compound 592] registered a 50% effective concentration (EC50) of 1 to 5 µM.

Compound `Fc1cnc(Nc2ccc3cc[nH]c3c2)cc1Nc1ccc2cc[nH]c2c1` [Compound 593, 5-fluoro-N2,N4-bis(1H-indol-6-yl)pyridine-2,4-diamine] came in with an EC50 of 1 to 5 µM.

Consider `CCOc1ccc(Nc2ccc3cc[nH]c3c2)nc1C` [Compound 594, N-(5-ethoxy-6-methylpyridin-2-yl)-1H-indol-6-amine], for which the EC50 is 5 to 100 µM.

`Cc1nc(Nc2ccc3cc[nH]c3c2)ccc1Cl` [Compound 595, N-(5-chloro-6-methylpyridin-2-yl)-1H-indol-6-amine] gave an EC50 of 5 to 100 µM.

In turn, `O=C(Nc1ccc(C(F)(F)F)cc1)Nc1cc(C(=O)OC2CCCC2)c2cc[nH]c2c1` [Compound 602, cyclopentyl 6-(3-(4-(trifluoromethyl)phenyl)ureido)-1H-indole-4-carboxylate] returned a concentration for a half-maximal effect (EC50) of 1 to 5 µM.

`FC(F)(F)c1ccc2ccc(Nc3cc(Cl)c4cc[nH]c4c3)nc2c1` [Compound 604]: the concentration giving a half-maximal response (EC50) fell in the range of 0.2 to 1 µM.

For `CN(c1ccc2cc[nH]c2c1)c1ccc2ccc(C(F)(F)F)cc2n1` [Compound 605, N-(1H-indol-6-yl)-N-methyl-7-(trifluoromethyl)quinolin-2-amine], the EC50 is 5 to 100 µM.

The compound `C1=C(c2ccc3ccc(Nc4ccc5cc[nH]c5c4)nc3c2)CCCC1` [Compound 606, 7-(cyclohex-1-en-1-yl)-N-(1H-indol-6-yl)quinolin-2-amine] had an EC50 of 1 to 5 µM.

For `Brc1ccc2ccc(Nc3ccc4cc[nH]c4c3)nc2c1` [Compound 607], the EC50 was in the range of 0.2 to 1 µM.

Take `Cn1ccc2ccc(Nc3ccc4ccc(C(F)(F)F)cc4n3)cc21` [Compound 608, N-(1-methyl-1H-indol-6-yl)-7-(trifluoromethyl)quinolin-2-amine]: the EC50 lay within 5 to 100 µM.

As to `FC(F)(F)c1cccc(Nc2ccc3cc[nH]c3c2)n1` [Compound 609], the half-maximal effective concentration (EC50) is 5 to 100 µM.

Compound `CCCCc1ccc(Nc2c(Nc3ccc4c(c3)CC=N4)c(=O)c2=O)cc1` [Compound 618] showed an EC50 of 1 to 5 µM.

In the case of `O=c1c(Nc2ccc(C(F)(F)F)cc2)c(Nc2ccc3[nH]ccc3c2)c1=O` [Compound 619], the 50% effective concentration (EC50) lay within 1 to 5 µM.

Take `O=c1c(Nc2ccc(C(F)(F)F)cc2)c(Nc2ccc3cc[nH]c3c2)c1=O` [Compound 620]: the concentration for a half-maximal effect (EC50) lay within 1 to 5 µM.

The assay is the same for the next values; noted with them: 15 μM 2′3′cGAMP, 24h, numeric bounds.
`Cc1nc(Nc2ccc3cc[nH]c3c2)ccc1F` [Compound 584, N-(5-fluoro-6-methylpyridin-2-yl)-1H-indol-6-amine] returned a half-maximal effective concentration (EC50) greater than 30 µM.

`CC1(C)Oc2ccc(Nc3ccc4cc[nH]c4c3)nc2NC1=O` [Compound 585, 6-[(1H-indol-6-yl)amino]-2,2-dimethyl-2H,3H,4H-pyrido[3,2-b][1,4]oxazin-3-one] yielded a concentration giving a half-maximal response (EC50) greater than 30 µM.

In the case of `O=C1CCc2nc(Nc3ccc4cc[nH]c4c3)ccc21` [Compound 596, 2-[(1H-indol-6-yl)amino]-5H,6H,7H-cyclopenta[b]pyridin-5-one], the EC50 was greater than 30 µM.

Compound `COC(=O)c1ccc(Nc2ccc3cc[nH]c3c2)nc1OC` [Compound 597] had a concentration giving a half-maximal response (EC50) greater than 30 µM.

The compound `Cc1nc(Nc2ccc3cc[nH]c3c2)ccc1C#N` [Compound 598, 6-((1H-indol-6-yl)amino)-2-methylnicotinonitrile] yielded an EC50 greater than 30 µM.

For the compound `COc1ccc(Nc2ccc3cc[nH]c3c2)nc1C` [Compound 599, N-(5-methoxy-6-methylpyridin-2-yl)-1H-indol-6-amine], the EC50 was greater than 30 µM.

Compound `c1cc2ccc(Nc3ccc4c(cnn4C4CCCCO4)n3)cc2[nH]1` (centres unmarked) [Compound 600, N-[1-(oxan-2-yl)-1H-pyrazolo[4,3-b]pyridin-5-yl]-1H-indol-6-amine] gave an EC50 greater than 30 µM.

As for `COc1ccc(Nc2ccc3cc[nH]c3c2)nc1F` [Compound 601, N-(6-fluoro-5-methoxypyridin-2-yl)-1H-indol-6-amine], the EC50 is greater than 30 µM.

The compound `COc1nc(Nc2ccc3cc[nH]c3c2)ccc1C#N` [Compound 603, 6-[(1H-indol-6-yl)amino]-2-methoxypyridine-3-carbonitrile] showed an EC50 greater than 30 µM.
